Our source for the T/C values is PubChem BioAssay AID328 (DTP/NCI, 2004).

The subject of the assay is BDF1 mice, P388 leukemia ip, median survival T/C. Put plainly: NCI In Vivo Anticancer Drug Screen. Data for tumor model P388 Leukemia (intraperitoneal) in B6D2F1 (BDF1) mice. The note with it: endpoint: median survival time, higher = longer survival. The procedure, abridged: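 Read-out is survival of treated animals expressed relative to the vehicle group, as a T/C ratio.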

Setting [1] is: dose: 12.5 mg/kg/injection, schedule: Q04DX003 (ip), vehicle: saline with Tween-80.
The mark [2] stands for this setting: dose: 25.0 mg/kg/injection, schedule: Q04DX003 (ip), vehicle: saline with Tween-80.
Setting [3] is: dose: 100.0 mg/kg/injection, schedule: Q04DX003 (ip), vehicle: Klucel (hydroxypropylcellulose) (HPC).
[4] abbreviates: dose: 200.0 mg/kg/injection, schedule: Q04DX003 (ip), vehicle: Klucel (hydroxypropylcellulose) (HPC).
Where [5] appears, read: dose: 400.0 mg/kg/injection, schedule: Q04DX003 (ip), vehicle: Klucel (hydroxypropylcellulose) (HPC).
The mark [6] stands for this setting: dose: 50.0 mg/kg/injection, schedule: Q01DX009 (ip), vehicle: saline with Tween-80.
Setting [7] is: dose: 100.0 mg/kg/injection, schedule: Q01DX009 (ip), vehicle: saline with Tween-80.
Setting [8] is: dose: 200.0 mg/kg/injection, schedule: Q01DX009 (ip), vehicle: saline with Tween-80.
[9] abbreviates: dose: 50.0 mg/kg/injection, schedule: Q04DX003 (ip), vehicle: saline with Tween-80.
Where [10] appears, read: dose: 100.0 mg/kg/injection, schedule: Q04DX003 (ip), vehicle: saline with Tween-80.
The mark [11] stands for this setting: dose: 6.25 mg/kg/injection, schedule: Q01DX009 (ip), vehicle: saline with Tween-80.
[12] abbreviates: dose: 12.5 mg/kg/injection, schedule: Q01DX009 (ip), vehicle: saline with Tween-80.
[13] abbreviates: dose: 100.0 mg/kg/injection, schedule: Q04DX003 (ip), vehicle: saline.
[14] abbreviates: dose: 50.0 mg/kg/injection, schedule: Q01DX009 (ip), vehicle: saline.
Setting [15] is: dose: 100.0 mg/kg/injection, schedule: Q01DX009 (ip), vehicle: saline.
Setting [16] is: dose: 200.0 mg/kg/injection, schedule: Q01DX009 (ip), vehicle: saline.
Where [17] appears, read: dose: 200.0 mg/kg/injection, schedule: Q04DX003 (ip), vehicle: saline.
Setting [18] is: dose: 200.0 mg/kg/injection, schedule: Q04DX003 (ip), vehicle: saline with Tween-80.
Where [19] appears, read: dose: 400.0 mg/kg/injection, schedule: Q04DX003 (ip), vehicle: saline with Tween-80.
The mark [20] stands for this setting: dose: 12.5 mg/kg/injection, schedule: Q01DX009 (ip), vehicle: saline.
Where [21] appears, read: dose: 25.0 mg/kg/injection, schedule: Q01DX009 (ip), vehicle: saline.
Where [22] appears, read: dose: 200.0 mg/kg/injection, schedule: Q01DX009 (ip), vehicle: Klucel (hydroxypropylcellulose) (HPC).

SMILES strings stand for the structures. “And” between values parts separate entries of the source, which are not always exact repeats. Equal entries are not always repeated. Toxic doses and inconclusive results are not listed.

As for `Clc1ccc(C#Cc2ccc(Cl)cc2)cc1`, the T/C runs as follows: (dose: 6.25 mg/kg/injection, schedule: Q04DX003 (ip), vehicle: saline with Tween-80) 92 % of control; under setting [1], 92 % of control; under setting [2], 96 % of control.

In the case of `Cc1ccc(/C(CN2CCOCC2)=N\O)cc1`, the T/C reads like this: (dose: 50.0 mg/kg/injection, schedule: Q01DX001 (ip), vehicle: saline sonified) 105 % of control; (dose: 100.0 mg/kg/injection, schedule: Q01DX001 (ip), vehicle: saline sonified) 105 % of control; (dose: 200.0 mg/kg/injection, schedule: Q01DX001 (ip), vehicle: saline sonified) 105 % of control.

Consider `O=[N+]([O-])c1ccc(C(Br)C(Br)c2ccccc2Br)cc1` (stereo not given), for which the T/C is, setting by setting: under setting [3], 100 % of control; under setting [4], 95 % of control; under setting [5], 90 % of control.

For the compound `COC(=O)C1=C(C(=O)OC)C2C=CC1C1CC(OC(C)=O)C21` (stereo not given), the T/C by setting is: under setting [6], 113 % of control; under setting [7], 113 % of control; under setting [8], 101 % of control.

For `CCC1CC(O)c2c(O)c3c(c(O)c2C1O)C(=O)c1cccc(O)c1C3=O` (stereo not given) (tested in a mixture with another compound), the T/C was 100 % of control (dose: 0.5 mg/kg/injection, schedule: Q01DX001 (ip), vehicle: saline); 109 % of control (dose: 1.0 mg/kg/injection, schedule: Q01DX001 (ip), vehicle: saline); 109 % of control (dose: 2.0 mg/kg/injection, schedule: Q01DX001 (ip), vehicle: saline).

`CC(C)=CC(=O)CC(O)(C(F)(F)F)C(F)(F)Cl` (stereo not given): the T/C under setting [2] is 100 % of control, the T/C under setting [9] was 95 % of control and the T/C under setting [10] is 109 % of control.

Take `Cc1cccc(C)c1NC(=S)N(C)C`: the T/C is 100 % of control (dose: 3.13 mg/kg/injection, schedule: Q01DX009 (ip), vehicle: saline with Tween-80); 100 % of control under setting [11]; 109 % of control (dose: 12.0 mg/kg/injection, schedule: Q01DX001 (ip), vehicle: Klucel (hydroxypropylcellulose) (HPC)); 95 % of control under setting [12]; 100 % of control (dose: 25.0 mg/kg/injection, schedule: Q01DX001 (ip), vehicle: Klucel (hydroxypropylcellulose) (HPC)); 100 % of control (dose: 50.0 mg/kg/injection, schedule: Q01DX001 (ip), vehicle: Klucel (hydroxypropylcellulose) (HPC)). For the same compound, the T/C under setting [13] is 100 % of control.

On to `O=C(O)c1ccc2cc(O)ccc2c1`, for which the T/C by setting is: (dose: 50.0 mg/kg/injection, schedule: Q01DX001 (ip), vehicle: saline with Tween-80) 100 % of control; under setting [14], 116 % of control; (dose: 50.0 mg/kg/injection, schedule: Q04DX003 (ip), vehicle: saline) 109 % of control; (dose: 100.0 mg/kg/injection, schedule: Q01DX001 (ip), vehicle: saline with Tween-80) 113 % of control; under setting [15], 116 % of control; under setting [13], 109 % of control. Further, the T/C is, setting by setting: (dose: 200.0 mg/kg/injection, schedule: Q01DX001 (ip), vehicle: saline with Tween-80) 100 % of control; under setting [16], 104 % of control; under setting [17], 100 % of control.

For the compound `CCN(CC)CCNc1ccc(COC(=O)NC)c2sc3ccccc3c(=O)c12`, the T/C under setting [11] is 166 % of control.

Take `C=Cn1cnc2c(N)ncnc21`: the T/C is, setting by setting: under setting [10], 103 % of control; under setting [18], 113 % of control; under setting [19], 106 % of control.

With `COc1ccc2[nH]ccc(=O)c2c1`, the T/C is 102 % of control under setting [6], 96 % of control under setting [7] and 105 % of control under setting [8].

As to `Cn1c(=O)[nH]cc([N+](=O)[O-])c1=O`, the T/C by setting is: under setting [6], 104 % of control; under setting [7], 105 % of control; under setting [8], 98 % of control.

With `CCOC(=O)C(NC(C)=O)(C(=O)OCC)C(C)C(=O)c1ccc(OC)c(OC)c1OCc1ccccc1` (stereo not given), the T/C was 101 % of control under setting [20], 111 % of control under setting [21], 92 % of control under setting [14] and 101 % of control under setting [16].

For `CCCCCCC(=O)CC(SCC)c1ccccc1Cl` (stereo not given), the T/C runs as follows: under setting [6], 93 % of control; under setting [7], 107 % of control; under setting [8], 121 % of control.

As for `CC(C)Cn1cnc2c(Sc3c([N+](=O)[O-])ncn3C)nc(N)nc21`, the T/C is, setting by setting: (dose: 67.0 mg/kg/injection, schedule: Q01DX009 (ip), vehicle: Klucel (hydroxypropylcellulose) (HPC)) 115 % of control; under setting [22], 91 % of control and 104 % of control; (dose: 400.0 mg/kg/injection, schedule: Q01DX009 (ip), vehicle: Klucel (hydroxypropylcellulose) (HPC)) 86 % of control; under setting [5], 118 % of control.

With `Cc1c2cnccc2c(C)c2c1c1ccccc1n2CCNCCO`, the T/C reads like this: (dose: 0.44 mg/kg/injection, schedule: Q04DX003 (ip), vehicle: saline) 118 % of control; (dose: 1.5 mg/kg/injection, schedule: Q04DX003 (ip), vehicle: saline) 109 % of control; under setting [10], 118 % of control; (dose: 150.0 mg/kg/injection, schedule: Q04DX003 (ip), vehicle: saline with Tween-80) 90 % of control.

In the case of `COC(C)C(NC(=O)C1CCCN1C)C1OC(SCCOC(=O)c2ccccc2O)C(O)C(O)C1O` (stereo not given), the T/C is 100 % of control under setting [14]; 100 % of control and 101 % of control (2×) under setting [15]; 104 % of control under setting [16].

As to `CCC(=O)O[C@H]1CC[C@H]2[C@@H]3CCC4=CC(=O)C[C@]4(C)[C@H]3CC[C@]12C`, the T/C is 100 % of control under setting [6]; 100 % of control under setting [7]; 110 % of control under setting [10]; 113 % of control under setting [8]; 105 % of control under setting [18].

Turning to `CC(C)(C)OC(=O)NNC(=O)c1ccc([N+](=O)[O-])cc1`, the T/C is, setting by setting: (dose: 50.0 mg/kg/injection, schedule: Q01DX009 (ip), vehicle: Klucel (hydroxypropylcellulose) (HPC)) 90 % of control; under setting [22], 95 % of control.

In the case of `COc1cc2c3cc1Oc1c(OC)c(OC)cc4c1C(Cc1ccc(OC(C)=O)c(c1)Oc1ccc(cc1)CC3N(C)CC2)N(C)CC4` (stereo not given), the T/C is 100 % of control under setting [1]; 109 % of control under setting [2]; 100 % of control under setting [9]; 95 % of control under setting [18]; 90 % of control under setting [19].

For `Clc1nc(SC2=NCCN2)c2[nH]cnc2n1`, the T/C under setting [1] was 108 % of control; the T/C (dose: 33.0 mg/kg/injection, schedule: Q04DX003 (ip), vehicle: saline with Tween-80) is 118 % of control; the T/C under setting [9] is 154 % of control.

With `COc1cc(/C=N\NC(=O)OC(C)(C)C)cc(OC)c1OC`, the T/C was 118 % of control under setting [6], 113 % of control under setting [7] and 86 % of control under setting [8].

Take `Cc1nc(Br)c2cnccn12`: the T/C under setting [20] is 118 % of control and the T/C under setting [21] was 109 % of control.

For `Cc1ccc(OC(=O)Nc2ccc(C(=O)O)c(O)c2)cc1`, the T/C is, setting by setting: under setting [14], 118 % of control; under setting [15], 109 % of control; under setting [13], 100 % of control; under setting [17], 113 % of control.

On to `O=[N+]([O-])c1ccccc1S(=O)(=O)Oc1ccccc1`, for which the T/C is 100 % of control under setting [3], 100 % of control under setting [4] and 100 % of control under setting [5].

Take `c1ccc(OCC2CO2)c(OCC2CO2)c1` (stereo not given): the T/C runs as follows: (dose: 60.0 mg/kg/injection, schedule: Q01DX005 (ip), vehicle: saline with Tween-80) 157 % of control; (dose: 120.0 mg/kg/injection, schedule: Q01DX005 (ip), vehicle: saline with Tween-80) 185 % of control; (dose: 240.0 mg/kg/injection, schedule: Q01DX005 (ip), vehicle: saline with Tween-80) 171 % of control.

Consider `O=C(Nc1cc(Cl)ccc1Cl)O/N=C/c1ccncc1`, for which the T/C reads like this: under setting [12], 106 % of control; (dose: 25.0 mg/kg/injection, schedule: Q01DX009 (ip), vehicle: saline with Tween-80) 90 % of control; under setting [6], 96 % of control.
